Assay results reported in patent US20100242139A1, “XENOHORMESIS BASED COMPOSITIONS AND METHODS” (President and Fellows of Harvard College, priority 2006, published 2010).

Legend:
IKKα(h) = IKKα(h) (Homo sapiens, UniProt O15111); assay: kinase panel activity, IKKα(h); type: biochemical; settings: compound at 20 μM; vs reference with no compound
TBK1(h) = TBK1(h) (Homo sapiens, UniProt Q9UHD2); assay: kinase panel activity, TBK1(h); type: biochemical; settings: compound at 20 μM; vs reference with no compound
Fms(h) = Fms(h) (Homo sapiens, UniProt P07333); assay: kinase panel activity, Fms(h); type: biochemical; settings: compound at 20 μM; vs reference with no compound
JNK3(h) = JNK3(h) (Homo sapiens, UniProt P53779); assay: kinase panel activity, JNK3(h); type: biochemical; settings: compound at 20 μM; vs reference with no compound
MST2(h) = MST2(h) (Homo sapiens, UniProt Q13188); assay: kinase panel activity, MST2(h); type: biochemical; settings: compound at 20 μM; vs reference with no compound
PKBβ(h) = PKBβ(h) (Homo sapiens, UniProt P31751); assay: kinase panel activity, PKBβ(h); type: biochemical
CDK7/cyclinH/MAT1(h) = CDK7/cyclinH/MAT1(h) (Homo sapiens, UniProt P50613); assay: kinase panel activity, CDK7/cyclinH/MAT1(h); type: biochemical; settings: compound at 20 μM; vs reference with no compound
CDK3/cyclinE(h) = CDK3/cyclinE(h) (Homo sapiens, UniProt Q00526); assay: kinase panel activity, CDK3/cyclinE(h); type: biochemical; settings: compound at 20 μM; vs reference with no compound
SAPK4(h) = SAPK4(h) (Homo sapiens, UniProt O15264); assay: kinase panel activity, SAPK4(h); type: biochemical; settings: compound at 20 μM; vs reference with no compound
CDK2/cyclinE(h) = CDK2/cyclinE(h) (Homo sapiens, UniProt P24941); assay: kinase panel activity, CDK2/cyclinE(h); type: biochemical; settings: compound at 20 μM; vs reference with no compound
MSK2(h) = MSK2(h) (Homo sapiens, UniProt O75676); assay: kinase panel activity, MSK2(h); type: biochemical; settings: compound at 20 μM; vs reference with no compound
Rsk1(h) = Rsk1(h) (Homo sapiens, UniProt Q15418); assay: kinase panel activity, Rsk1(h); type: biochemical; settings: compound at 20 μM; vs reference with no compound
ALK4(h) = ALK4(h) (Homo sapiens, UniProt P36896); assay: kinase panel activity, ALK4(h); type: biochemical; settings: compound at 20 μM; vs reference with no compound
PKA(h) = PKA(h) (Homo sapiens, UniProt P17612); assay: kinase panel activity, PKA(h); type: biochemical; settings: compound at 20 μM; vs reference with no compound
DAPK1(h) = DAPK1(h) (Homo sapiens, UniProt P53355); assay: kinase panel activity, DAPK1(h); type: biochemical; settings: compound at 20 μM; vs reference with no compound
Fgr(h) = Fgr(h) (Homo sapiens, UniProt P09769); assay: kinase panel activity, Fgr(h); type: biochemical; settings: compound at 20 μM; vs reference with no compound
CDK6/cyclinD3(h) = CDK6/cyclinD3(h) (Homo sapiens, UniProt Q00534); assay: kinase panel activity, CDK6/cyclinD3(h); type: biochemical; settings: compound at 20 μM; vs reference with no compound
SAPK2a(T106M)(h) = SAPK2a(T106M)(h) (Homo sapiens, UniProt Q16539, T106M); assay: kinase panel activity, SAPK2a(T106M)(h); type: biochemical; settings: compound at 20 μM; vs reference with no compound
NEK6(h) = NEK6(h) (Homo sapiens, UniProt Q9HC98); assay: kinase panel activity, NEK6(h); type: biochemical; settings: compound at 20 μM; vs reference with no compound
CDK5/p35(h) = CDK5/p35(h) (Homo sapiens, UniProt Q00535); assay: kinase panel activity, CDK5/p35(h); type: biochemical; settings: compound at 20 μM; vs reference with no compound
Snk(h) = Snk(h) (Homo sapiens, UniProt Q9NYY3); assay: kinase panel activity, Snk(h); type: biochemical; settings: compound at 20 μM; vs reference with no compound
CHK2(h) = CHK2(h) (Homo sapiens, UniProt O96017); assay: kinase panel activity, CHK2(h); type: biochemical; settings: compound at 20 μM; vs reference with no compound
SGK2(h) = SGK2(h) (Homo sapiens, UniProt Q9HBY8); assay: kinase panel activity, SGK2(h); type: biochemical; settings: compound at 20 μM; vs reference with no compound
AMPK(r) = assay: kinase panel activity, AMPK(r); type: biochemical, rat; settings: compound at 20 μM; vs reference with no compound
GSK3β(h) = GSK3β(h) (Homo sapiens, UniProt P49841); assay: kinase panel activity, GSK3β(h); type: biochemical; settings: compound at 20 μM; vs reference with no compound
CHK1(h) = CHK1(h) (Homo sapiens, UniProt O14757); assay: kinase panel activity, CHK1(h); type: biochemical; settings: compound at 20 μM; vs reference with no compound
IKKβ(h) = IKKβ(h) (Homo sapiens, UniProt O14920); assay: kinase panel activity, IKKβ(h); type: biochemical; settings: compound at 20 μM; vs reference with no compound
Aurora-A(h) = Aurora-A(h) (Homo sapiens, UniProt O14965); assay: kinase panel activity, Aurora-A(h); type: biochemical; settings: compound at 20 μM; vs reference with no compound
CDK5/p25(h) = CDK5/p25(h) (Homo sapiens, UniProt Q00535); assay: kinase panel activity, CDK5/p25(h); type: biochemical; settings: compound at 20 μM; vs reference with no compound
TAK1(h) = TAK1(h) (Homo sapiens, UniProt O43318); assay: kinase panel activity, TAK1(h); type: biochemical; settings: compound at 20 μM; vs reference with no compound
ALK(h) = ALK(h) (Homo sapiens, UniProt Q9UM73); assay: kinase panel activity, ALK(h); type: biochemical; settings: compound at 20 μM; vs reference with no compound
PAK6(h) = PAK6(h) (Homo sapiens, UniProt Q9NQU5); assay: kinase panel activity, PAK6(h); type: biochemical; settings: compound at 20 μM; vs reference with no compound
NEK7(h) = NEK7(h) (Homo sapiens, UniProt Q8TDX7); assay: kinase panel activity, NEK7(h); type: biochemical; settings: compound at 20 μM; vs reference with no compound
DAPK2(h) = DAPK2(h) (Homo sapiens, UniProt Q9UIK4); assay: kinase panel activity, DAPK2(h); type: biochemical; settings: compound at 20 μM; vs reference with no compound
cKit(h) = cKit(h) (Homo sapiens, UniProt P10721); assay: kinase panel activity, cKit(h); type: biochemical; settings: compound at 20 μM; vs reference with no compound
MEK1(h) = MEK1(h) (Homo sapiens, UniProt Q02750); assay: kinase panel activity, MEK1(h); type: biochemical; settings: compound at 20 μM; vs reference with no compound
Tie2(h) = Tie2(h) (Homo sapiens, UniProt Q02763); assay: kinase panel activity, Tie2(h); type: biochemical; settings: compound at 20 μM; vs reference with no compound
IRR(h) = IRR(h) (Homo sapiens, UniProt P14616); assay: kinase panel activity, IRR(h); type: biochemical; settings: compound at 20 μM; vs reference with no compound
NEK3(h) = NEK3(h) (Homo sapiens, UniProt P51956); assay: kinase panel activity, NEK3(h); type: biochemical; settings: compound at 20 μM; vs reference with no compound
TrkA(h) = TrkA(h) (Homo sapiens, UniProt P04629); assay: kinase panel activity, TrkA(h); type: biochemical; settings: compound at 20 μM; vs reference with no compound

Sequence of Snk(h) (Q9NYY3 whole entry): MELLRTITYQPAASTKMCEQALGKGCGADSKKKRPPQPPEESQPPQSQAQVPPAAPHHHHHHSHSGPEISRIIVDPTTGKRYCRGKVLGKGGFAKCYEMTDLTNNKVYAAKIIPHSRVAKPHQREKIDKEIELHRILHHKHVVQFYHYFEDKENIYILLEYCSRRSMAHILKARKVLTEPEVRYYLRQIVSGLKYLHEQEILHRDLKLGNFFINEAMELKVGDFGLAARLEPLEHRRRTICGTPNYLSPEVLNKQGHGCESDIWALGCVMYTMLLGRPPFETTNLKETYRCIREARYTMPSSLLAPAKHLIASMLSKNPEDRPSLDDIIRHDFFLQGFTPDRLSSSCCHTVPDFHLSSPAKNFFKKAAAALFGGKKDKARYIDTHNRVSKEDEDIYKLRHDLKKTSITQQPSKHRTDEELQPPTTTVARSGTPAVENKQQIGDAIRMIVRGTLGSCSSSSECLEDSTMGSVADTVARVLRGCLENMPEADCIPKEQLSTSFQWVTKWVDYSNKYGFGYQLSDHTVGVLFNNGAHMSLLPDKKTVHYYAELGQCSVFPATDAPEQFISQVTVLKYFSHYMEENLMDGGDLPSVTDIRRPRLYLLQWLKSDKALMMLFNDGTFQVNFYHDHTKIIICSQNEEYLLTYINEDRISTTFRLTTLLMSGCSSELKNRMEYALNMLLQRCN
Sequence of MSK2(h) (O75676 whole entry): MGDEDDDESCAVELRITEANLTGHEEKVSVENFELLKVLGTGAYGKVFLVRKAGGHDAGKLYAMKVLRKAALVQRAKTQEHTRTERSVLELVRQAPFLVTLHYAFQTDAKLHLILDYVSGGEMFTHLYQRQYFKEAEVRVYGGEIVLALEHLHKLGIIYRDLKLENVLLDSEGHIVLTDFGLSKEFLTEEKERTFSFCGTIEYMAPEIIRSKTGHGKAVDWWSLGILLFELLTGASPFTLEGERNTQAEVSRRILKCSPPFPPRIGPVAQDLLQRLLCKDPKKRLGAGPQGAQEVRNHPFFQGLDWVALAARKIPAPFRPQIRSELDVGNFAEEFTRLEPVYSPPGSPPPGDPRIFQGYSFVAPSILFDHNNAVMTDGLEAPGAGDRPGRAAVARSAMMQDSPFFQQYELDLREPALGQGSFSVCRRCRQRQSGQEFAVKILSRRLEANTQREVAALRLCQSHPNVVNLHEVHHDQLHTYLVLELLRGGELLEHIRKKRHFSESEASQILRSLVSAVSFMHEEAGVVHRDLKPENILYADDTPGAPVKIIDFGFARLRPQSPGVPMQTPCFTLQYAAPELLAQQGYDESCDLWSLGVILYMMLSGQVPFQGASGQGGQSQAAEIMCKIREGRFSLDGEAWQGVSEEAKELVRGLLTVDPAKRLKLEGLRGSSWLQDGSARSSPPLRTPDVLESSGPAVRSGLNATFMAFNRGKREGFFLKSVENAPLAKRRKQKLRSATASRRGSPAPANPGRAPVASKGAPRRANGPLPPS
Sequence of MEK1(h) (Q02750 whole entry): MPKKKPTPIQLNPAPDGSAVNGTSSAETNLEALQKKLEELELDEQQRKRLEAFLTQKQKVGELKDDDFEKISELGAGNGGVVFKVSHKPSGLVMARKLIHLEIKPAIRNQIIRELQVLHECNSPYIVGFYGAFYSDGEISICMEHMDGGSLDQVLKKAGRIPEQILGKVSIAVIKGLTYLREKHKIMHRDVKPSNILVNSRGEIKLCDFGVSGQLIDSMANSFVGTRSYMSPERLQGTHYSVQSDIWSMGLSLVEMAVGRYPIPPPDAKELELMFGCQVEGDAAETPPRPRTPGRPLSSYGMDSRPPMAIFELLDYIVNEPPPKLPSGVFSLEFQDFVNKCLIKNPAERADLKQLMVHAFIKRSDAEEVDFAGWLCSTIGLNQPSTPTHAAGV
Sequence of DAPK2(h) (Q9UIK4 whole entry): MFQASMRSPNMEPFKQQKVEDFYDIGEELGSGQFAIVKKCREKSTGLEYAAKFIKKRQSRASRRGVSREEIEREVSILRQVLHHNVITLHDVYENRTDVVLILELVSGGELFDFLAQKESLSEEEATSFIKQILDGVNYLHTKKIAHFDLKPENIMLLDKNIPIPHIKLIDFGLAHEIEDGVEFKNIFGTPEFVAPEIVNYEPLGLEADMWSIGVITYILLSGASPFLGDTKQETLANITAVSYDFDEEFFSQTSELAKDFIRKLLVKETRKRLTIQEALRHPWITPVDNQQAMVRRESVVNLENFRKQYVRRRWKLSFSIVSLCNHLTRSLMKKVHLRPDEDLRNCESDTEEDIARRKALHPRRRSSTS
Sequence of IKKβ(h) (O14920 whole entry): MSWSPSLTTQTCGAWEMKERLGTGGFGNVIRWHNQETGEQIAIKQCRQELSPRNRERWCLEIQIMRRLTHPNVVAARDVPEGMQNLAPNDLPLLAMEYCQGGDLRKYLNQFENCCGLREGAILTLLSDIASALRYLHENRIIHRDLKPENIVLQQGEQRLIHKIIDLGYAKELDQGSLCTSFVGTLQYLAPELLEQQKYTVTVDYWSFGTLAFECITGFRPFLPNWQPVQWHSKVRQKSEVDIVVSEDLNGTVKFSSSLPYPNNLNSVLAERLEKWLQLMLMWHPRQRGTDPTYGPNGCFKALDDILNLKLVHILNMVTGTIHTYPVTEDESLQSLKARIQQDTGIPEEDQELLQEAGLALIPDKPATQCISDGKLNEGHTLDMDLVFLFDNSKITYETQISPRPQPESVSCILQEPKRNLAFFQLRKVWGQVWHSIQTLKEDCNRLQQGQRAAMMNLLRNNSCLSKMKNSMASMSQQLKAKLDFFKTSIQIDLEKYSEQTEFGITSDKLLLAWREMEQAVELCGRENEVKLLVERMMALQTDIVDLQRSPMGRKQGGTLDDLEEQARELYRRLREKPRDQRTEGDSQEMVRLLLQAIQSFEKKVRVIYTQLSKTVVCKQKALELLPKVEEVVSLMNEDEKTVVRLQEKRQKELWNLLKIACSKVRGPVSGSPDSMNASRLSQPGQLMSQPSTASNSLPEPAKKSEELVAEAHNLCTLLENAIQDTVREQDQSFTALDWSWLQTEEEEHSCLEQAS
Sequence of MST2(h) (Q13188 whole entry): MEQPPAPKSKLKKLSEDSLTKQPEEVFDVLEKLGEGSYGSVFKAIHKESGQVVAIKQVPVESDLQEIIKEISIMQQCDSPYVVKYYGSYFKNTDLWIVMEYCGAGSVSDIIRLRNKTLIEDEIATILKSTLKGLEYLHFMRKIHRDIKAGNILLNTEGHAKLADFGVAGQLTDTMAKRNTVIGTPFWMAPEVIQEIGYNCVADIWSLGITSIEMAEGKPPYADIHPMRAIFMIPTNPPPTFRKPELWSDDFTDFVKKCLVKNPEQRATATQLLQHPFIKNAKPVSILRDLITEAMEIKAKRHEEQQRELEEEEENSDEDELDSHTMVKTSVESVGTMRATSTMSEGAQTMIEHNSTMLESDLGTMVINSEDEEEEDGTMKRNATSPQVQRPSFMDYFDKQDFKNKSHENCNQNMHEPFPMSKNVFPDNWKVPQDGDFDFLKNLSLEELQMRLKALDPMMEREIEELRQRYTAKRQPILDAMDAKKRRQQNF
Sequence of IRR(h) (P14616 27-1297): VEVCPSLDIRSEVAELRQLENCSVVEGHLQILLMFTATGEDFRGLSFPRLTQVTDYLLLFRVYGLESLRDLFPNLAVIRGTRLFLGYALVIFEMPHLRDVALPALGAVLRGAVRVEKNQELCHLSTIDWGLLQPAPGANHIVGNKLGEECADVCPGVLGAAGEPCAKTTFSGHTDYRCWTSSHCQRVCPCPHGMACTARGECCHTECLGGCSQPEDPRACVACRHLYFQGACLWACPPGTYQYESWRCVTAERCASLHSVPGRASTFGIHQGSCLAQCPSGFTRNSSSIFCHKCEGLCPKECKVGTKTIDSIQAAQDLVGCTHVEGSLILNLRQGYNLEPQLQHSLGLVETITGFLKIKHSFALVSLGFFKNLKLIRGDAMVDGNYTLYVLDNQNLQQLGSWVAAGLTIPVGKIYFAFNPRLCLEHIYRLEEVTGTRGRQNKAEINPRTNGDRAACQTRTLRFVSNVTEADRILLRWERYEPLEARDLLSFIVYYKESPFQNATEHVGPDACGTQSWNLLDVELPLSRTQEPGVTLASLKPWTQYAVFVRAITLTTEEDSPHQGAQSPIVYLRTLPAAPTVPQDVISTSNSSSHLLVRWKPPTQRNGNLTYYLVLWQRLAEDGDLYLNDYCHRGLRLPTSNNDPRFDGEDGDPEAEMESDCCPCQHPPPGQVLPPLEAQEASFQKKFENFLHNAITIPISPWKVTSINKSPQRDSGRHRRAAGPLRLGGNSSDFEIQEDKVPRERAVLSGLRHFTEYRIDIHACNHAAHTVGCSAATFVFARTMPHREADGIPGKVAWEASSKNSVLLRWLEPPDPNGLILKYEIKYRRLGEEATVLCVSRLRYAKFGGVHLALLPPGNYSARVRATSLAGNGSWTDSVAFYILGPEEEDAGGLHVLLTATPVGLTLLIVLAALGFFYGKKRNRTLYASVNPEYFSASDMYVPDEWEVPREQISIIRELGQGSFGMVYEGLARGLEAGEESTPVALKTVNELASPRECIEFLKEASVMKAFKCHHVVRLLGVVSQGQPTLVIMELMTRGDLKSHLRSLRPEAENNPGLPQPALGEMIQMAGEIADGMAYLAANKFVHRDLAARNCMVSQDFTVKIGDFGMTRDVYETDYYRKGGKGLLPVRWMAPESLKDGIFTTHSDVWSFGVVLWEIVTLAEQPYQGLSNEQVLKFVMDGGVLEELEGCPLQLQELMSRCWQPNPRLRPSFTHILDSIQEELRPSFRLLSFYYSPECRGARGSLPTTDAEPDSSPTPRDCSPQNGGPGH
Sequence of TAK1(h) (O43318 1-303 limits assumed): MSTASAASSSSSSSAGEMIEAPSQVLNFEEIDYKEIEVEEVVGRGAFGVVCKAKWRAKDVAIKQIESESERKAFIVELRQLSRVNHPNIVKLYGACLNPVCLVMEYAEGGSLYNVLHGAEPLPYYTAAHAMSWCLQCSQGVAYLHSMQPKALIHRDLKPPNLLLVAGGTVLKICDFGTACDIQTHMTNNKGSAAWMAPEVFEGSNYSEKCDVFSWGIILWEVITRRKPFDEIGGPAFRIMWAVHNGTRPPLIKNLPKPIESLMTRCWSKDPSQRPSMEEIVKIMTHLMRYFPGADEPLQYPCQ

SMILES	percent activity of IKKα(h) (IKKα(h))	percent activity of TBK1(h) (TBK1(h))	percent activity of Fms(h) (Fms(h))	percent activity of JNK3(h) (JNK3(h))	percent activity of MST2(h) (MST2(h))	percent activity of CDK7/cyclinH/MAT1(h) (CDK7/cyclinH/MAT1(h))	percent activity of CDK3/cyclinE(h) (CDK3/cyclinE(h))	percent activity of SAPK4(h) (SAPK4(h))	percent activity of CDK2/cyclinE(h) (CDK2/cyclinE(h))	percent activity of MSK2(h) (MSK2(h))	percent activity of Rsk1(h) (Rsk1(h))	percent activity of ALK4(h) (ALK4(h))	percent activity of PKA(h) (PKA(h))	percent activity of DAPK1(h) (DAPK1(h))	percent activity of Fgr(h) (Fgr(h))	percent activity of CDK6/cyclinD3(h) (CDK6/cyclinD3(h))	percent activity of SAPK2a(T106M)(h) (SAPK2a(T106M)(h))	percent activity of NEK6(h) (NEK6(h))	percent activity of CDK5/p35(h) (CDK5/p35(h))	percent activity of Snk(h) (Snk(h))	further results
O=C(O)[C@H]1O[C@@H](Oc2ccc(/C=C/c3cc(O)cc(O)c3)cc2)[C@H](O)[C@@H](O)[C@@H]1O [Res 4′-Gluc, resveratrol-4-glucuronide]	113%	80%	94%	105%	120%	110%	101%	104%	106%	94%	104%	104%	105%	107%	67%	95%	109%	107%	104%	87%	percent activity of PKBβ(h) (PKBβ(h); compound at 20 μM, vs reference with no compound): 94%; percent activity of CHK2(h) (CHK2(h)): 95%; percent activity of SGK2(h) (SGK2(h)): 91%; percent activity of AMPK(r) (AMPK(r)): 43%; percent activity of GSK3β(h) (GSK3β(h)): 88%; percent activity of CHK1(h) (CHK1(h)): 117%; percent activity of IKKβ(h) (IKKβ(h)): 98%; percent activity of Aurora-A(h) (Aurora-A(h)): 33%; percent activity of CDK5/p25(h) (CDK5/p25(h)): 91%; percent activity of TAK1(h) (TAK1(h)): 113%; percent activity of ALK(h) (ALK(h)): 87%; percent activity of PAK6(h) (PAK6(h)): 128%; percent activity of NEK7(h) (NEK7(h)): 112%; percent activity of DAPK2(h) (DAPK2(h)): 92%; percent activity of cKit(h) (cKit(h)): 100%; percent activity of MEK1(h) (MEK1(h)): 120%; percent activity of Tie2(h) (Tie2(h)): 76%; percent activity of IRR(h) (IRR(h)): 93%; percent activity of NEK3(h) (NEK3(h)): 105%; percent activity of TrkA(h) (TrkA(h)): 32%
Oc1ccc(C=Cc2cc(O)cc(O)c2)cc1 [resveratrol, 3,5,4′-trihydroxystilbene]	40%	62%	61%	98%	73%	95%	75%	92%	80%	60%	70%	110%	100%	71%	78%	55%	102%	140%	77%	81%	activity at 20 µM (PKBβ(h); read-out: percent activity of PKBβ(h)): 105%; percent activity of CHK2(h) (CHK2(h)): 59%; percent activity of SGK2(h) (SGK2(h)): 70%; percent activity of AMPK(r) (AMPK(r)): 39%; percent activity of GSK3β(h) (GSK3β(h)): 92%; percent activity of CHK1(h) (CHK1(h)): 95%; percent activity of IKKβ(h) (IKKβ(h)): 116%; percent activity of Aurora-A(h) (Aurora-A(h)): 65%; percent activity of CDK5/p25(h) (CDK5/p25(h)): 64%; percent activity of TAK1(h) (TAK1(h)): 105%; percent activity of ALK(h) (ALK(h)): 39%; percent activity of PAK6(h) (PAK6(h)): 103%; percent activity of NEK7(h) (NEK7(h)): 116%; percent activity of DAPK2(h) (DAPK2(h)): 67%; percent activity of cKit(h) (cKit(h)): 68%; percent activity of MEK1(h) (MEK1(h)): 110%; percent activity of Tie2(h) (Tie2(h)): 94%; percent activity of IRR(h) (IRR(h)): 40%; percent activity of NEK3(h) (NEK3(h)): 96%; percent activity of TrkA(h) (TrkA(h)): 31%
